This is an account of results in US12012392B2, “Sulfonamide carboxamide compounds” (Inflazome Limited, priority 2017, dated 2024).

The target in data set [1] is T1, NLRP3 (Homo sapiens, UniProt Q96P20). Description: THP-1 cells pyroptosis assay. It is filed as cell-based. Also on record: Seed THP-1 cells (25,000 cells/well) containing 1.0 μg/ml LPS; host or cells: THP-1 cells, LPS-primed, nigericin-stimulated. Conditions: LPS 1 μg/ml, nigericin 5 μM, resazurin read-out. As to the method: THP-1 cells (ATCC #TIB-202) were grown in RPMI containing L-glutamine (Gibco #11835) supplemented with 1 mM sodium pyruvate (Sigma #S8636) and penicillin (100 units/ml)/streptomycin (0.1 mg/ml) (Sigma #P4333) in 10% Fetal Bovine Serum (FBS) (Sigma #F0804). The cells were routinely passaged and grown to confluency (˜10^6 cells/ml). On the day of the experiment, THP-1 cells were harvested and resuspended into RPMI medium (without FBS). The cells were then counted and viability (>90%) checked by Trypan blue (Sigma #T8154). Appropriate dilutions were made to give a concentration of 625,000 cells/ml. To this diluted cell solution was added LPS (Sigma #L4524) to give a 1 μg/ml Final Assay Concentration (FAC). 40 μl of the final preparation was aliquoted into each well of a 96-well plate. The plate thus prepared was used for compound screening.
T1 sequence (Q96P20 whole entry): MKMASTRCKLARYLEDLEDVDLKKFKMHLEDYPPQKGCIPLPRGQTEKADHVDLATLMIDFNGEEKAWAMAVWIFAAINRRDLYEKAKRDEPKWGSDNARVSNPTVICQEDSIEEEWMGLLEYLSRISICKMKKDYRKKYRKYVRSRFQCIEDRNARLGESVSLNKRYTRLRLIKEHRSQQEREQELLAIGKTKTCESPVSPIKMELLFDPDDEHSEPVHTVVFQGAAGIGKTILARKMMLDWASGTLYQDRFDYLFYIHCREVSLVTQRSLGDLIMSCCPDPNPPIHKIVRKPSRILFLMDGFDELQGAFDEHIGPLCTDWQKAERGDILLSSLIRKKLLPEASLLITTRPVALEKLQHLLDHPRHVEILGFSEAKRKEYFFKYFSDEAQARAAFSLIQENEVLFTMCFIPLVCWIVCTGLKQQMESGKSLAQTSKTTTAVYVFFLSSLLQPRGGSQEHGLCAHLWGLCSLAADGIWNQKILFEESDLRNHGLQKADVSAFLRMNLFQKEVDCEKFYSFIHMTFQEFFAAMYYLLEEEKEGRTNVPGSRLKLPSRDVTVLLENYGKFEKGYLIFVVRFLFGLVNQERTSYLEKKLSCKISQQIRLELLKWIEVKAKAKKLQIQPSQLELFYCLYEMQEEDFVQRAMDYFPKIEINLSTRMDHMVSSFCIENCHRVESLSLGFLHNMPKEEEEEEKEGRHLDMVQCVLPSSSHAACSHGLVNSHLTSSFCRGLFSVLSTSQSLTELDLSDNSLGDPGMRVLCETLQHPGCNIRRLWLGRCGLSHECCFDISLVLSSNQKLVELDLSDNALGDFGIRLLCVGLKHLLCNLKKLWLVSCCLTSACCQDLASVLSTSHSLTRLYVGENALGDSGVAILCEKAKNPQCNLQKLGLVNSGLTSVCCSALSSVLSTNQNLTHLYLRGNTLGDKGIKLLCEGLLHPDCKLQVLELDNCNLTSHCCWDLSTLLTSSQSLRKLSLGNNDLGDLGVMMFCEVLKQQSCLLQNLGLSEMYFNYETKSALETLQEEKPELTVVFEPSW
The following method step-by-step assay was followed for compound screening. • 1. Seed THP-1 cells (25,000 cells/well) containing 1.0 μg/ml LPS in 40 μl of RPMI medium (without FBS) in 96-well, black walled, clear bottom cell culture plates coated with poly-D-lysine (VWR #734-0317) • 2. Add 5 μl compound (8 points half-log dilution, with 10 μM top dose) or vehicle (DMSO 0.1% FAC) to the appropriate wells • 3. Incubate for 3 hrs at 37° C. and 5% CO2 • 4. Add 5 μl nigericin (Sigma #N7143) (FAC 5 μM) to all wells • 5. Incubate for 1 hr at 37° C. and 5% CO2 • 6. At the end of the incubation period, spin plates at 300×g for 3 mins and remove supernatant • 7. Then add 50 μl of resazurin (Sigma #R7017) (FAC 100 μM resazurin in RPMI medium without FBS) and incubate plates for a further 1-2 hrs at 37° C. and 5% CO2 • 8. Plates were read in an Envision reader at Ex 560 nm and Em 590 nm • 9. IC50 data is fitted to a non-linear regression equation (log inhibitor vs response-variable slope 4-parameters) 96-Well Plate Map
For orientation: Alamar Blue is a resazurin reagent that responds to reducing activity.

Data set [2] has as its target T1, NLRP3. Put plainly: Human whole blood IL1β release assay. It is filed as cell-based. Also on record: Plate out 80 μl of whole blood containing 1 μg/ml of LPS; from tissue; host or cells: human whole blood from healthy donors, LPS-primed, nigericin-stimulated. The settings on record: LPS 1 μg/ml, nigericin 10 μM, IL-1β AlphaLisa, read-out: HWB IC50. As to the method:
For systemic delivery, the ability to inhibit NLRP3 when the compounds are present within the bloodstream is of great importance. For this reason, the NLRP3 inhibitory activity of a number of compounds in human whole blood was investigated in accordance with the following protocol.
Human whole blood in Li-heparin tubes was obtained from healthy donors from a volunteer donor panel. • 1. Plate out 80 μl of whole blood containing 1 μg/ml of LPS in 96-well, clear bottom cell culture plate (Corning #3585) • 2. Add […] compound (8 points half-log dilution with 10 μM top dose) or vehicle (DMSO 0.1% FAC) to the appropriate wells • 3. Incubate for 3 hrs at 37° C., 5% CO2 • 4. Add 10 μl Nigericin (Sigma #N7143) (10 μM FAC) to all wells • 5. Incubate for 1 hr at 37° C., 5 CO2 • 6. At the end of the incubation period, spin plates at 300×g for 5 mins to pellet cells and remove 20 μl of supernatant and add to 96-well v-bottom plates for […] analysis (note: these plates containing the supernatants can be stored at −80° C. to be analysed at a later date) • 7. IL-1β was measured according to the manufacturer protocol (Perkin Elmer-AlphaLisa IL-1 Kit AL220F-5000) • 8. IC50 data is fitted to anon-linear regression equation (log inhibitor vs response-variable slope 4-parameters)
A general note: Alpha assays give light when donor and acceptor beads are brought close together.

Data set [3] in a line: PK protocol (intravenous and oral administration). It is filed as in vivo, male Sprague Dawley rats. Conditions: male, Sprague Dawley, plasma, rat, intravenous, dose 2.41 mg/kg. As to the method: Pharmacokinetic parameters were determined in male Sprague Dawley rats (Charles River, UK, 250-350 g; or Vital River Laboratory Animal Technology Co Ltd, Beijing, China, 7-9 weeks old). Animals were individually housed during the study and maintained under a 12 h light/dark cycle. Animals had free access to food and water except that some orally dosed animals were food deprived overnight prior to the study. For intravenous administration, compounds were formulated as a solution in water or DMSO:PBS [10:90] in 2 mL/kg dosing volume and administered via tail vein. For oral administration, compounds were formulated as a solution in water or DMSO:water [10:90] in 5 mL/kg dosing volume and administered orally.
Serial blood samples (about 120-300 μL) were taken from each animal at each of 8 time-points post dose (0.083, 0.25, 0.5, 1, 2, 4, 8 and 24 h) or at each of 12 time-points post dose (0.03, 0.1, 0.17, 0.25, 0.5, 1, 2, 4, 6, 8, 12 and 24 h) or pre-dose and at each of 9 time-points post dose (0.25, 0.5, 1, 2, 4, 6, 8, 12 and 24 h). Samples were held on ice for no longer than 30 minutes before centrifugation (10,000 rpm (8,385 g) for 3 minutes; or 5,696 rpm (3,000 g) for 15 minutes) for plasma generation. Plasma was frozen on dry ice prior to bioanalysis. PK parameters were generated from LC-MS/MS data using Dotmatics or Phoenix WinNonlin 6.3 software.

As usually defined, the IC50 is the concentration that gives 50% inhibition. For orientation: AUC means concentration integrated over time. A low value points to less exposure. One may read the half-life as how long it takes for the measured level to halve. Low values mean rapid decline, high ones slow decline.

Where a name gives a salt, the structure may show the parent alone.

Regarding `CCN(CCO)C(=O)c1cc(S(=O)(=O)NC(=O)Nc2c3c(cc4c2CCC4)CCC3)nn1C` [Example 66, N-Ethyl-3-(N-((1,2,3,5,6,7-hexahydro-s-indacen-4-yl)carbamoyl)sulfamoyl)-N-(2-hydroxyethyl)-1-methyl-1H-pyrazole-5-carboxamide], the figures for the concentration for half-maximal inhibition (IC50) on NLRP3 [1] and on NLRP3 [2] were 160 to 640 nM and 800 to 1600 nM, respectively.
The matching figures for `O=C(Nc1c2c(cc3c1CCC3)CCC2)NS(=O)(=O)c1ccn(CCO)n1` [Example 8, N-((1,2,3,5,6,7-Hexahydro-s-indacen-4-yl)carbamoyl)-1-(2-hydroxyethyl)-1H-pyrazole-3-sulfonamide]: 40 to 160 nM and < 400 nM.
On to `COC(C)(C)Cn1ccc(S(=O)(=O)NC(=O)Nc2c3c(cc4c2CCC4)CCC3)n1` [Example 14, N-((1,2,3,5,6,7-Hexahydro-s-indacen-4-yl)carbamoyl)-1-(2-methoxy-2-methylpropyl)-1H-pyrazole-3-sulfonamide], for which the values for the IC50 on NLRP3 [1] and on NLRP3 [2] were < 40 nM and 400 to 800 nM, respectively.
For `Cn1nc(S(=O)(=O)NC(=O)Nc2c3c(cc4c2CCC4)CCC3)cc1C1(O)CCOCC1` [Example 55, N-((1,2,3,5,6,7-Hexahydro-s-indacen-4-yl)carbamoyl)-5-(4-hydroxytetrahydro-2H-pyran-4-yl)-1-methyl-1H-pyrazole-3-sulfonamide], the IC50 is 160 to 640 nM on NLRP3 [1] and 800 to 1600 nM at NLRP3 [2].
The matching figures for `O=C(Nc1c2c(cc3c1CCC3)CCC2)NS(=O)(=O)c1ccn(C[C@@H](O)CO)n1` [Example 104]: 160 to 640 nM and 800 to 1600 nM.
For `COC1CN(CC(C)(C)n2ccc(S(=O)(=O)NC(=O)Nc3c4c(cc5c3CCC5)CCC4)n2)C1` [Example 107], in that order: 40 to 160 nM and 800 to 1600 nM.
The matching figures for `O=C(Nc1c2c(cc3c1CCC3)CCC2)NS(=O)(=O)c1ccn(CC2CCOC2)n1` (stereo not shown) [Example 6, N-((1,2,3,5,6,7-Hexahydro-s-indacen-4-yl)carbamoyl)-1-((tetrahydrofuran-3-yl)methyl)-1H-pyrazole-3-sulfonamide]: 40 to 160 nM and 800 to 1600 nM.
`N#Cc1cc(-c2ccc3c(c2NC(=O)NS(=O)(=O)c2ccn(C4CCOC4)n2)CCC3)ccn1` (stereo not shown) [Example 91]: the IC50 was < 40 nM at NLRP3 [1] and < 400 nM on NLRP3 [2].
For `O=C(Nc1c2c(cc3c1CCC3)CCC2)NS(=O)(=O)c1ccn(CC2CCCO2)n1` (single isomer, unassigned) [Example 4], in that order: 40 to 160 nM and 3200 to 10000 nM.
For `CC(C)c1cc(Cl)cc(C(C)C)c1NC(=O)NS(=O)(=O)c1cc(C(=O)N(C)CCO)n(C)n1` [Example 82, 3-(N-((4-Chloro-2,6-diisopropylphenyl)carbamoyl)sulfamoyl)-N-(2-hydroxyethyl)-N,1-dimethyl-1H-pyrazole-5-carboxamide], in that order: 40 to 160 nM and 800 to 1600 nM.
The matching figures for `C[C@@H](O)Cn1ccc(S(=O)(=O)NC(=O)Nc2c(-c3ccnc(C#N)c3)ccc3c2CCC3)n1` [Example 92]: < 40 nM and < 400 nM.
For the compound `COc1cc(-c2ccc3c(c2NC(=O)NS(=O)(=O)c2ccn(C[C@@H](C)O)n2)CCC3)ccn1` [Example 94], the IC50 is < 40 nM at NLRP3 [1] and < 400 nM on NLRP3 [2].
`CC(C)c1cc(Cl)cc(C(C)C)c1NC(=O)NS(=O)(=O)c1ccn(CC(C)(C)O)n1` [Example 19, N-((4-Chloro-2,6-diisopropylphenyl)carbamoyl)-1-(2-hydroxy-2-methylpropyl)-1H-pyrazole-3-sulfonamide]: the half-maximal inhibitory concentration (IC50) at NLRP3 [1] lay in the range of 640 to 2560 nM; at NLRP3 [2] it was 3200 to 10000 nM.
The matching figures for `C[C@@H](O)Cn1cnc(S(=O)(=O)NC(=O)Nc2c3c(cc4c2CCC4)CCC3)n1` [Example 36, (R)—N-((1,2,3,5,6,7-Hexahydro-s-indacen-4-yl)carbamoyl)-1-(2-hydroxypropyl)-1H-1,2,4-triazole-3-sulfonamide]: 160 to 640 nM and 400 to 800 nM.
The matching figures for `COc1cc(-c2ccc3c(c2NC(=O)NS(=O)(=O)c2ccn(C(C)(C)CN4CC(OC)C4)n2)CCC3)ccn1` [Example 90]: < 40 nM and < 400 nM.
The matching figures for `O=C(Nc1c2c(cc3c1CCC3)CCC2)NS(=O)(=O)c1ccn(C2CCOCC2)n1` [Example 31, N-((1,2,3,5,6,7-Hexahydro-s-indacen-4-yl)carbamoyl)-1-(tetrahydro-2H-pyran-4-yl)-1H-pyrazole-3-sulfonamide]: 160 to 640 nM and 1600 to 3200 nM.
Consider `CC[C@@H](O)Cn1ccc(S(=O)(=O)NC(=O)Nc2c3c(cc4c2CCC4)CCC3)n1` [Example 25, (R)—N-((1,2,3,5,6,7-Hexahydro-s-indacen-4-yl)carbamoyl)-1-(2-hydroxybutyl)-1H-pyrazole-3-sulfonamide], for which the figures for the half-inhibitory concentration (IC50) on NLRP3 [1] and on NLRP3 [2] were 160 to 640 nM and 800 to 1600 nM, respectively.
The matching figures for `CC(C)(O)Cn1ccc(S(=O)(=O)NC(=O)Nc2c3c(c(F)c4c2CCC4)CCC3)n1` [Example 106]: < 40 nM and 400 to 800 nM.
Regarding `CC1(Cn2ccc(S(=O)(=O)NC(=O)Nc3c4c(cc5c3CCC5)CCC4)n2)COC1` [Example 9, N-((1,2,3,5,6,7-Hexahydro-s-indacen-4-yl)carbamoyl)-1-((3-methyloxetan-3-yl)methyl)-1H-pyrazole-3-sulfonamide, partial ammonium salt], the figures for the 50% inhibitory concentration (IC50) at NLRP3 [1] and on NLRP3 [2] were 640 to 2560 nM and 3200 to 10000 nM, respectively.
In data set [3], `CN(CCO)C(=O)c1cc(S(=O)(=O)NC(=O)Nc2c3c(cc4c2CCC4)CCC3)nn1C` [Example 59, 3-(N-((1,2,3,5,6,7-Hexahydro-s-indacen-4-yl)carbamoyl)sulfamoyl)-N-(2-hydroxyethyl)-N,1-dimethyl-1H-pyrazole-5-carboxamide] had an AUC of 787 ng·h/mL, a clearance of 114 mL/min/kg and a half-life of 18 min. Besides, the Vd in data set [3] (read-out: Vdss) turned out to be 2.37 L/kg. Also, at NLRP3 [1], the IC50 lay within 40 to 160 nM.
